Test results reported in patent US8906381B2, “Immunonanotherapeutics that provide IGG humoral response without T-cell antigen” (Massachusetts Institute of Technology, priority 2008, dated 2014).

Tests used:
[1] = system: anti-nicotine IgG; experiment: Anti-nicotine IgG in immunized mice (ELISA); type: in vivo, C57BL6 mice; settings: data of FIGS. 34 and 35
[2] = system: CD4 T cells from OT-II donor mice; experiment: In vivo CD4 T cell activation (CFSE-labeled OT-II cells); set-up: species or system C57BL6J mice; settings: three days after footpad immunization; CpG adjuvant
Description: Subsequently, immunization experiments were performed by injecting one footpad with free OVA or with nanoparticles composed of either PLA or PLGA that encapsulated an equivalent amount of OVA as a model antigen. All antigenic mixtures also contained CpG (a TLR9 agonist) as an adjuvant. The animals were injected, sacrificed three days after immunization, and OT-II T cell activation was assessed by flow cytometry in single-cell suspensions from different tissues.
By contrast, activated T cells divide and in the process split the fluorescent dye evenly between the two daughter cells resulting in an incremental decrease in fluorescence intensity upon each successive division. Thus, the greater the left shift in CFSE, fluorescence the stronger T cells were activated.

| Compound | production of nicotine antibodies [1] | local T cell proliferation in distal lymphoid tissues (brachial lymph node, spleen) [2] |
| --- | --- | --- |
| CN1CCCC1c1cccnc1 (centres unmarked) [free nicotine, nicotine] | does not elicit the production of nicotine antibodies |  |
| free OVA: free chicken ovalbumin (OVA) model antigen, mixed with CpG adjuvant |  | only undivided cells or cells with very low CFSE content |
